In patent US12570657B2, “Mesylate salts of heterocyclic cytokinins, compositions containing these derivatives and use thereof” (UNIVERZITA PALACKEHO V OLOMOUCI, priority 2020, dated 2026):

Tests used:
[1] = system: G361 (malignant melanoma); assay: In vitro cytotoxicity, Calcein AM assay, G-361; format: cell-based; details: Homo sapiens, 72 h, 3-day Calcein-AM assay
From the text: Because toxic compounds adversely affect cell metabolic processes, many standard cytotoxicity assays are based on measuring the rate of metabolism of various artificial substrates. The resulting product is then quantified, for example, by spectrometry. Assays can be easily modified for use in 96-well plates, A microtiter assay based on the quantification of Calcein AM metabolism was used to evaluate the cytotoxicity of cytokinins, for example meta-topolin, ortho-topolin, kinetin, BAP or its mesylate salts, but also a number of other cytokinin mesylate derivatives according to the invention. The test is widely used in drug screening programs and in chemosensitivity testing. In living cells, Calcein AM is enzymatically hydrolyzed and the accumulation of the resulting calcein is manifested by green fluorescence. The following cell lines—RPMI 8226 (multiple myeloma), CEM (T-lymphoblastic leukemia), K562 (chronic myeloid leukemia), HL-60 (promyelocytic, leukemia), MCF-7 (breast adenocarcinoma), HeLa (cervical cancer), G361 (malignant melanoma), HOS (human osteosarcoma) and BJ (human foreskin fibroblasts)—were obtained from the American Type Culture Collection (Manassas, VA, USA). These cells were maintained in standard DMEM or RPMI medium (Sigma, MO, USA) supplemented with heat-inactivated fetal bovine serum (10%) with 2 mM L-glutamine and penicillin-streptomycin (1%) under standard cell culture conditions (37° C., 5% CO2 in a humid environment) and subcultured two or three times a week using a standard trypsinization procedure. Approximately 10,000 cells in 80 μl of medium were seeded in a 96-well microtiter plate. After 12 hours of incubation, the compounds to be tested were added in 20 μl aliquots. Control cultures were treated with DMSO alone. […] Serial, 3-fold dilutions (six in total, peak concentrations in 166 μM incubations) of each compound were tested. After 72 hours of incubation, Calcein AM solution (Molecular Probes) was added to a final concentration of 1 μg/ml and the cells were incubated for another hour. Free calcein fluorescence was then quantified using a Fluoroscan Ascent fluorometer (Microsystems), and the percentage of surviving cells in each well was calculated by dividing the OD obtained from each cell by the exposed cells by the mean OD obtained from control wells×100%, Finally, IC50 values (concentration causing a 50% decrease in cellular esterase activity) were calculated for each compound generated from dose-response curves (Krys̆tof et al., 2005, Bioorg. Med. Chem. Lett. 12, 3283-3286). The IC50 values reported here are averages obtained from at least three independent experiments, where the individual replication values fell within 20% of the average. Growth inhibition was calculated using the following equation: […](mean FDwell exposed to drug−mean FDblank)/(mean FDcontrol well−mean FDblank)×100%.
Cytoxicity of compounds was tested on panel of cell lines of different histogenetic and species origin.

[2] = system: HOS (human osteosarcoma); assay: In vitro cytotoxicity, Calcein AM assay, HOS; format: cell-based; details: Homo sapiens, 72 h, 3-day Calcein-AM assay
How it was run: (§1)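 Cells (~10,000/well) in DMEM or RPMI with 10% FBS were seeded, given test compounds after 12 h and incubated 72 h at 37 °C, 5% CO2; DMSO alone served as control. Calcein AM was then added at 1 μg/ml final for 1 h, and viability was read as calcein green fluorescence.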

[3] = system: CEM (T-lymphoblastic leukemia); assay: In vitro cytotoxicity, Calcein AM assay, CEM; format: cell-based; details: 3-day Calcein-AM assay
How it was run: as §1

[4] = system: Spring barley (variety Francin); assay: Field trial: grain yield and productive tillers of spring barley after foliar spray; format: in vivo; details: for Length of plants / Medium tillers (number) / Number of spikes per square meter / SUM of tillers / Strong tillers (number) / Weak tillers (number) / Grain yield (t/ha) at 14% humidity / Grain yield, % compared to control / Length of plants, % compared to control / Medium tillers, % compared to control / Number of spikes per square meter, % compared to control / SUM of tillers, % compared to control / Strong tillers, % compared to control / Weak tillers, % compared to control: 5 uMol; for Length of plants / Medium tillers (number) / Number of spikes per square meter / SUM of tillers / Strong tillers (number) / Weak tillers (number) / Grain yield, % compared to control / Length of plants, % compared to control / Medium tillers, % compared to control / Number of spikes per square meter, % compared to control / SUM of tillers, % compared to control / Strong tillers, % compared to control / Weak tillers, % compared to control: application BBCH 31-33; for Grain yield (t/ha) at 14% humidity: application BBCH 31-33, spring barley; for Grain yield, % compared to control / Length of plants, % compared to control / Medium tillers, % compared to control / Number of spikes per square meter, % compared to control / SUM of tillers, % compared to control / Strong tillers, % compared to control / Weak tillers, % compared to control: untreated control = 100; for Grain yield: foliar spray 300 l/ha, BBCH 31-33
Protocol: Spring barley (variety Francin) was treated in 2019 at the locality in Olomouc, sprayed with substances—marked BAP (benzylaminopurine), meta-topolin mesylate and BAP mesylate. The seed was 3.5 million germinating seeds, the experiment was established in 5 randomized replicates for each variant, the control was an untreated variant. The experiment was performed according to the GEP (Good Experimental Practice) methodology, the size of individual plots was 10 m^2. The application of the substances was carried out at a rate of 300 l/ha, in the growth phase BBCH 31-33 (beginning of peeling).

[5] = system: retinal epitelium cells ARPE-19; assay: Cytotoxicity for non-cancer cells, resazurine reduction assay, ARPE-19
Protocol: It is used for viability testing of both bacterial and eukaryotic cells. […] Cultivation medium was DMEM with 10% FBS. Before the experiment, the cells were subcultured for 2 weeks. For the cytotoxicity evaluation, the cells were trypsinized and pipetted into 96 well plates (5000 cells per well in 80 microliters). After 24 hours, 5× concentrated solutions of the tested compounds in the medium were added. […] IC50 values were calculated from dose response curves using drc library for R programming environment.

[6] = resazurin, 72 hour treatment, ARPE-19

Compound | IC50 [1] [µM] | IC50 [2] [µM] | IC50 ([3]; 72 h) [µM] | Length of plants [4] [cm] | Medium tillers (number) [4] | Number of spikes per square meter [4] | SUM of tillers [4] | Strong tillers (number) [4] | Weak tillers (number) [4] | Grain yield (t/ha) at 14% humidity [4] [t/ha] | Grain yield, % compared to control [4] [%] | Length of plants, % compared to control [4] [%] | Medium tillers, % compared to control [4] [%] | Number of spikes per square meter, % compared to control [4] [%] | SUM of tillers, % compared to control [4] [%] | Strong tillers, % compared to control [4] [%] | Weak tillers, % compared to control [4] [%] | Grain yield [4] | Cytotoxicity for Fibroblasts (GI20) ARPE-19 [5, 6] [μM] | other results
COc1cccc(CNc2ncnc3nc[nH]c23)c1 [3MeOBAP, 6-(3-methoxybenzylamino)purine] | 125 | > 167 | > 167 | – | – | – | – | – | – | – | – | – | – | – | – | – | – | – | – | –
CS(=O)(=O)O.c1ccc(CNc2ncnc3nc[nH]c23)cc1 [BAP mesylate, 6-benzylaminopurine mesylate] | – | – | – | 83.2 | 1.35 | 758.4 | 6.35 | 2.75 | 2.25 | 7.74 | 104.34 | 100.48 | 64.29 | 112.06 | 110.43 | 152.78 | 121.62 | 104.34 % at control | >100 | –
c1ccc(CNc2ncnc3nc[nH]c23)cc1 [BAP, 6-benzylaminopurine] | – | > 167 | > 167 | 82.5 | 1.7 | 752 | 6.6 | 2.8 | 2.1 | 7.42 | 100.13 | 99.64 | 80.95 | 111.11 | 114.78 | 155.56 | 113.51 | did not affect grain yield | – | Cytotoxicity for Fibroblasts (GI20) ARPE-19 ([5]; human, 72 h): >100 μM
CS(=O)(=O)O.Oc1cccc(CNc2ncnc3nc[nH]c23)c1 [mT mesylate, 6-(3-hydroxybenzylamino)purine mesylate] | – | – | – | – | – | – | – | – | – | – | – | – | – | – | – | – | – | 108.03 % at control | >100 | IC50 ([3]; mesylate): > 167 µM
Oc1cccc(CNc2ncnc3nc[nH]c23)c1 [meta-topolin (mT), 6-(3-hydroxybenzylamino)purine] | > 167 | > 167 | 90.1 | – | – | – | – | – | – | – | – | – | – | – | – | – | – | – | >100 | –
Oc1ccccc1CNc1ncnc2nc[nH]c12 [ortho-topolin (oT), 6-(2-hydroxybenzylamino)purine] | 103 | > 167 | 69.2 | – | – | – | – | – | – | – | – | – | – | – | – | – | – | – | >100 | –
